Test results as given in ChEMBL document CHEMBL5465560, “Selectivity Literature for EUbOPEN Chemogenomic Library” (2024).

How the values were obtained:
[1] = molecular target: Fibroblast growth factor receptor 2 (Homo sapiens) (UniProt P21802); test: Selectivity interaction (Upstate Kinase Profiler service (Millipore)) EUB0000056c FGFR2; conditions: at 1 µM
[2] = molecular target: T1, Mitogen-activated protein kinase 13 (Homo sapiens) (UniProt O15264); test: Selectivity interaction (KinomeScan (DiscoverX)) EUB0001079a MAPK13; conditions: at 1 µM
T1 sequence (whole entry): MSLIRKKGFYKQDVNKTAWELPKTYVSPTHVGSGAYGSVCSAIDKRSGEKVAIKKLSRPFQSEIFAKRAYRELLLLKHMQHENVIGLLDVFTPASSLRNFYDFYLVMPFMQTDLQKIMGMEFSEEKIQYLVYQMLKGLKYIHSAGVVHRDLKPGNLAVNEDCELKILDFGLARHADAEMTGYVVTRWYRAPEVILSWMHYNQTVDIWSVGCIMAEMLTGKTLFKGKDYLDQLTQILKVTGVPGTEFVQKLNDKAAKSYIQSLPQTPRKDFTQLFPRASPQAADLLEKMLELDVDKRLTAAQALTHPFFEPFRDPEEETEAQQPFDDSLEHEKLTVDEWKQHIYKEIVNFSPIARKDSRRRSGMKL

[3] = molecular target: Serine/threonine-protein kinase NIM1 (Homo sapiens, UniProt Q8IY84); test: Selectivity interaction (KinomeScan (DiscoverX)) EUB0001079a NIM1K; conditions: at 1 µM
Serine/threonine-protein kinase NIM1, sequence (Q8IY84 whole entry): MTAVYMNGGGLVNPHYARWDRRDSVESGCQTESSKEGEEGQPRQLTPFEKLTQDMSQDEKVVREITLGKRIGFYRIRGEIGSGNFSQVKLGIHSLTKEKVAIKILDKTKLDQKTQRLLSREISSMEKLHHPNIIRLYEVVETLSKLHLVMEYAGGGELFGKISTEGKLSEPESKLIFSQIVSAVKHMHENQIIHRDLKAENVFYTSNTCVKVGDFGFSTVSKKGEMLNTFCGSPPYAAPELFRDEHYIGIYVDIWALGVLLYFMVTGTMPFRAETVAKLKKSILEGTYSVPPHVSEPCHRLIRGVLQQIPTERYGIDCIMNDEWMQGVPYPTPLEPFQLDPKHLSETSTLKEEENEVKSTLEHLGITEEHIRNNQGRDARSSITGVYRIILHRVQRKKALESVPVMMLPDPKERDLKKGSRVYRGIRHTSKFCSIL

[4] = molecular target: Dual specificity testis-specific protein kinase 2 (Homo sapiens) (UniProt Q96S53); test: Selectivity interaction (LanthaScreen Eu Kinase Binding Assay) EUB0001632a TESK2; conditions: at 10 µM
Dual specificity testis-specific protein kinase 2 (Homo sapiens), sequence (Q96S53 whole entry, looked up): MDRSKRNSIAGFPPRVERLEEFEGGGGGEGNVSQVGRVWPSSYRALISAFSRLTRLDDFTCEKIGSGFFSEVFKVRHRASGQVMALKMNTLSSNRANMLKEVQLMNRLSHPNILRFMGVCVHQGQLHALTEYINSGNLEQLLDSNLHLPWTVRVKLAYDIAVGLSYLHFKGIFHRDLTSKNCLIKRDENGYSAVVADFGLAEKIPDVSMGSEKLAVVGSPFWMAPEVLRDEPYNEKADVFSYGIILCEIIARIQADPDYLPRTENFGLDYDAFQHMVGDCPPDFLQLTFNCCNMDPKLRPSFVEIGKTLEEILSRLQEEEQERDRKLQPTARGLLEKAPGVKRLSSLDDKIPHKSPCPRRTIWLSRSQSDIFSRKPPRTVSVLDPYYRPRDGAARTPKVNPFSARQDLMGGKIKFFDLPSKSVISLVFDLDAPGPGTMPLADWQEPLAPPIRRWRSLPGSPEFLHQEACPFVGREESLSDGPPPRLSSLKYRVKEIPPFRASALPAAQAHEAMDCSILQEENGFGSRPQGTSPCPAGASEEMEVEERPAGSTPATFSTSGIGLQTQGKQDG

[5] = molecular target: Myosin-IIIa (Homo sapiens) (UniProt Q8NEV4); test: Selectivity interaction (KinomeScan (DiscoverX)) EUB0000607a MYO3A; conditions: at 10 µM
Myosin-IIIa (Homo sapiens), sequence (Q8NEV4 whole entry): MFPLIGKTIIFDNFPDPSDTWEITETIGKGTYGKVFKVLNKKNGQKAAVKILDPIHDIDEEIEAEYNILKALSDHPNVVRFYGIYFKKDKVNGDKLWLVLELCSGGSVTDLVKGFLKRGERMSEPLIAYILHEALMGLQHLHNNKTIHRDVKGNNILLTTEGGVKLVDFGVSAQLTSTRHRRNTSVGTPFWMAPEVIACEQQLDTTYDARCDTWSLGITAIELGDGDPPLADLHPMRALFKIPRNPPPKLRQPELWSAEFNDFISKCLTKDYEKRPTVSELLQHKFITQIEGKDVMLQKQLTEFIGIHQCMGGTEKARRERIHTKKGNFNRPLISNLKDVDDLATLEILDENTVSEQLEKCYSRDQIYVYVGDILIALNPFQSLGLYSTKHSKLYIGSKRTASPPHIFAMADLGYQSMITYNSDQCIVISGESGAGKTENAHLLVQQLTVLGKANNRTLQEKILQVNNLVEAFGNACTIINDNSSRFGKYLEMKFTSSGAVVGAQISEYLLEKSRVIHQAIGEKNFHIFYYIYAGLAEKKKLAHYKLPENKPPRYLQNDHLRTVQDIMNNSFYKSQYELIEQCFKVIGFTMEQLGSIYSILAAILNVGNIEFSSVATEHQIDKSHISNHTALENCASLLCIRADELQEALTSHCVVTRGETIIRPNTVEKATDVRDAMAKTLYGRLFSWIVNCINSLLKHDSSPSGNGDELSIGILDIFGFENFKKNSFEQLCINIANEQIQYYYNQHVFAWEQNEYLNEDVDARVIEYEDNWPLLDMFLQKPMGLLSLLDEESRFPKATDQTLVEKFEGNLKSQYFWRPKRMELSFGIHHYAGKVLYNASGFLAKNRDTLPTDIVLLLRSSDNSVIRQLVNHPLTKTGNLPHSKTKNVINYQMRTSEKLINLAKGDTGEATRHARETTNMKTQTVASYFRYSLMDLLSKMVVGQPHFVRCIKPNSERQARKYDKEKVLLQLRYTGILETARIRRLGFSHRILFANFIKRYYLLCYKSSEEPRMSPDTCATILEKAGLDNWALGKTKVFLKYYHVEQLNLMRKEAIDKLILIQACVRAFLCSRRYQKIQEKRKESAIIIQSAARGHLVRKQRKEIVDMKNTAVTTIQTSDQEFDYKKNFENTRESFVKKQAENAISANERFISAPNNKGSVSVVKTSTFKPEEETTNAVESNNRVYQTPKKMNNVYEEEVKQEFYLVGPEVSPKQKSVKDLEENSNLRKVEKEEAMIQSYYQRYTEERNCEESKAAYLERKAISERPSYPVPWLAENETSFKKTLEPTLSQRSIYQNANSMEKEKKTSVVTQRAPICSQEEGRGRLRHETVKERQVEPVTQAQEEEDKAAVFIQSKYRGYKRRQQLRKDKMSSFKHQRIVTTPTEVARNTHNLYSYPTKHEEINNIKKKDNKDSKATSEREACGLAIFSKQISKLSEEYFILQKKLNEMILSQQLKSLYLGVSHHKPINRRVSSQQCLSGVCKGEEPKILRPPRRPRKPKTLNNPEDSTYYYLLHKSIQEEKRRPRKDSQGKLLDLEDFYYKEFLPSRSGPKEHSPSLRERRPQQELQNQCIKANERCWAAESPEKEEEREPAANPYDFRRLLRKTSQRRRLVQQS

[6] = molecular target: T2, Serine/threonine-protein kinase ULK2 (Homo sapiens) (UniProt Q8IYT8); test: Selectivity interaction (KinomeScan (DiscoverX)) EUB0000618a ULK2; conditions: at 10 µM
T2 sequence (whole entry): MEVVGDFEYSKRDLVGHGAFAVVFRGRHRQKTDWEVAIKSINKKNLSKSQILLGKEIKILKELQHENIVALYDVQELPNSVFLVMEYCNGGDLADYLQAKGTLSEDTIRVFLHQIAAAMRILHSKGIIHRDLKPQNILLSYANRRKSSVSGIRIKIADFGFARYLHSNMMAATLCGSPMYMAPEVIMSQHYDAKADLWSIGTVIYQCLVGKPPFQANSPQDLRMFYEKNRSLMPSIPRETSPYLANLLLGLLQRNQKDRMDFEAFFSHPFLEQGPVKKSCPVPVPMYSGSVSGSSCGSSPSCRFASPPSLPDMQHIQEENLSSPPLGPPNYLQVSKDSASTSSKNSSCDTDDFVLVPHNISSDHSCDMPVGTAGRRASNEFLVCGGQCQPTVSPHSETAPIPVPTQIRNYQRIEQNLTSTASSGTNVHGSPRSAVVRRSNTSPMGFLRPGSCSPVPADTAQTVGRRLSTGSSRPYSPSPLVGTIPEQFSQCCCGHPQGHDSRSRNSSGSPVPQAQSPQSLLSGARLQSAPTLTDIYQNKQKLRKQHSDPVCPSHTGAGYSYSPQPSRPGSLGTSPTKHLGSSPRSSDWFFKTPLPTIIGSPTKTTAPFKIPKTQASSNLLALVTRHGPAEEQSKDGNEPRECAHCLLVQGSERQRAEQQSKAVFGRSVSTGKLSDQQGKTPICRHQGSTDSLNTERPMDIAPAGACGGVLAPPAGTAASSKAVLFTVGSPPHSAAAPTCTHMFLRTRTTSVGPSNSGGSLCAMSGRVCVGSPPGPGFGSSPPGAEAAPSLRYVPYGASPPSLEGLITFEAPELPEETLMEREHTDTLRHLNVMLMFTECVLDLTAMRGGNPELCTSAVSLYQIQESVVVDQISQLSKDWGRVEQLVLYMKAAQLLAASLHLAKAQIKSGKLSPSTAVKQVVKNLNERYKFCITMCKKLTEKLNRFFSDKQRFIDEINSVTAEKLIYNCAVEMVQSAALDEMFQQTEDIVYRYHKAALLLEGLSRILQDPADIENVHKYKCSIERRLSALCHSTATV

[7] = molecular target: T3, Mitogen-activated protein kinase kinase kinase 19 (Homo sapiens) (UniProt Q56UN5); test: Selectivity interaction (Ambit KINOMEscan and KiNATiv profiling in Jurkat cells) EUB0000090b MAP3K19; format: cell-based; conditions: at 1 µM
T3 sequence (whole entry): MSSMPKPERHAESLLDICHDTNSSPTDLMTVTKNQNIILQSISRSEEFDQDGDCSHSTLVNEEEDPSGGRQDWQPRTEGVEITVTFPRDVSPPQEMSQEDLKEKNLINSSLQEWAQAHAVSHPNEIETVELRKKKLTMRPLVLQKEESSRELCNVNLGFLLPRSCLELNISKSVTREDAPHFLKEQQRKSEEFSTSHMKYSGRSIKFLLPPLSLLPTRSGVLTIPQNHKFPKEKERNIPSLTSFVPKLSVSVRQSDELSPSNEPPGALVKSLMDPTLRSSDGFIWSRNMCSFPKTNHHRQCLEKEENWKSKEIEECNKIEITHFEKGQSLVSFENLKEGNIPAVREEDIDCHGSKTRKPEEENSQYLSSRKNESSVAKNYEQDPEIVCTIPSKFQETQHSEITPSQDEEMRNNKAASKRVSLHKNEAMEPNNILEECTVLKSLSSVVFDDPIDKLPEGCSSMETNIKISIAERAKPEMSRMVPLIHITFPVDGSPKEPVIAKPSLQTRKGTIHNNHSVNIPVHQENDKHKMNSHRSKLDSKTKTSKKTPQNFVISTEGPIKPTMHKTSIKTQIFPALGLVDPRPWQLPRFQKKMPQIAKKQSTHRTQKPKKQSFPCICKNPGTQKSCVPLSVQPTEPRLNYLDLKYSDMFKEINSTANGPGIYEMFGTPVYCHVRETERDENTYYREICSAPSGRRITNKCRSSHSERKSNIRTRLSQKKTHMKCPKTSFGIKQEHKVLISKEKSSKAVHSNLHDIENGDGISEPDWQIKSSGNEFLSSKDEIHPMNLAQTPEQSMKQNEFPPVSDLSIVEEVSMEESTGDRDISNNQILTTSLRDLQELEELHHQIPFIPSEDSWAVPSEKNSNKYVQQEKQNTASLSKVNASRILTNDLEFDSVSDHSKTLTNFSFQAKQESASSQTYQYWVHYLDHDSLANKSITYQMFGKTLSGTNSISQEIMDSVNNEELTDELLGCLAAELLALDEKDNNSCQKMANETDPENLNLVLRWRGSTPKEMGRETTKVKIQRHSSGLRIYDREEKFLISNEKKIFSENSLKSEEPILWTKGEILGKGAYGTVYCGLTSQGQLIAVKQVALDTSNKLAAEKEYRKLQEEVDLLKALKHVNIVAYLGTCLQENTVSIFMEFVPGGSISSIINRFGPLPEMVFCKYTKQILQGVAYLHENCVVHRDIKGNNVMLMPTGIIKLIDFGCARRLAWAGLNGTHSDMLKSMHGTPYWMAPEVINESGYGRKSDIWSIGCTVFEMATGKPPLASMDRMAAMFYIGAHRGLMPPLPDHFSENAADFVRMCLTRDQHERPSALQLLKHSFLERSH

Fibroblast growth factor receptor 2 (Homo sapiens), sequence (P21802 22-821 limits assumed): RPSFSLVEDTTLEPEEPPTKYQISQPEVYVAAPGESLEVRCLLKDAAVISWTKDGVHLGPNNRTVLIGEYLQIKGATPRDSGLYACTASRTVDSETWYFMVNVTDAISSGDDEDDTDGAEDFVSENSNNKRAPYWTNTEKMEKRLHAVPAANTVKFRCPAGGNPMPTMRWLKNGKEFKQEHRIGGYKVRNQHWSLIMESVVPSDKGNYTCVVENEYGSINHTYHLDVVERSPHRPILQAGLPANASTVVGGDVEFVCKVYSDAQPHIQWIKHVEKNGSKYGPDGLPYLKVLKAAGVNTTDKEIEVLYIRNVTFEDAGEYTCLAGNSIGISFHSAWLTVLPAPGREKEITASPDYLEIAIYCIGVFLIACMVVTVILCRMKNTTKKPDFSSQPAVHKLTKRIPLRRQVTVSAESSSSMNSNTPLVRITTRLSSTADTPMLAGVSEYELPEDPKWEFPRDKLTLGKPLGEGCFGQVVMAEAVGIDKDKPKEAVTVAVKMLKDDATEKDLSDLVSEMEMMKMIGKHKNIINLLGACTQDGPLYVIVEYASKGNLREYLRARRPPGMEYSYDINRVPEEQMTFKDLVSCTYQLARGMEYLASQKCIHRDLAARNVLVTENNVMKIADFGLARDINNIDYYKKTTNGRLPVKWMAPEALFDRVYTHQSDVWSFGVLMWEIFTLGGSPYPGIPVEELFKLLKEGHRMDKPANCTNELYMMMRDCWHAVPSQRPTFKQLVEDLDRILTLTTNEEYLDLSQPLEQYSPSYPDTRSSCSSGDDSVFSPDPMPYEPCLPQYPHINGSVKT

## Cc1ccc(-c2ccc3c(ccc4sc5c(c43)NC[C@@H](C)NC5=O)n2)cn1
[1]
  % of inhibition: -10%

## Nc1cnc(N2CCc3cc(S(=O)(=O)Nc4c(F)cc(Cl)cc4F)cc(N4CCCC4=O)c32)nc1 [TP-020n]
[2]
  % of control: 100%
[3]
  % of control: 100%

## Cn1cc(-n2cnc3c(NCc4nc5cc(Cl)c(Cl)cc5[nH]4)nc(N4CCOCC4)nc32)cn1
[4]
  % of inhibition: 0.732%

## CNC(=O)Nc1ccc(-c2nc(N3CC4CCC(C3)O4)c3cnn(C4CCC5(CC4)OCCO5)c3n2)cc1
[5]
  % of control: 52%

## O[C@H]1CC[C@H](Nc2ncc3nc(Nc4c(F)cc(F)cc4F)n([C@H]4CCOC4)c3n2)CC1
[6]
  % of control: 89%

## CN(C)C/C=C/C(=O)Nc1ccc(C(=O)N2CCCC(Nc3ncc(Cl)c(-c4c[nH]c5ccccc45)n3)C2)cc1 (configuration not stated)
[7]
  % of control: 98%
